The values that follow come from ChEMBL document CHEMBL3588756, “Allobetulin derived seco-oleananedicarboxylates act as inhibitors of acetylcholinesterase” (Bioorg Med Chem Lett, 2015).

By IC50 is commonly meant the point on the concentration scale where inhibition reaches its midpoint. Low readings indicate greater potency in that assay, high ones weaker potency in that assay. As usually defined, the Ki is the dissociation constant of the complex between target and ligand, obtained from inhibition or displacement. High values mean a looser hold on the target, low ones a stronger hold on the target. In general, EC50 refers to the concentration giving half of the maximal effect.

In data set [1] the target is T1, Acetylcholinesterase (Electrophorus electricus, UniProt O42275). As to the kind of experiment: Inhibition of Electrophorus electricus acetylcholinesterase using acetylthiocholine iodide as substrate preincubated for 20 mins followed by substrate addition measured for 30 mins by Ellman's method.
In data set [2] the target is Cholinesterase (Equus caballus, UniProt P81908). As to the kind of experiment: Inhibition of equine serum butyrylcholinesterase using butyrylthiocholineidioide as substrate preincubated for 20 mins followed by substrate addition measured for 30 mins by Ellman's method.
Data set [3] is described as follows: Cytotoxicity against mouse NIH/3T3 cells assessed as cell survival after 96 hrs by sulforhodamine-B assay. It is filed as cell-based. The settings on record: NIH3T3, 96 h.
The target in data set [4] is T1, Acetylcholinesterase. As to the kind of experiment: Competitive Inhibition of Electrophorus electricus acetylcholinesterase using acetylthiocholine iodide as substrate preincubated for 20 mins followed by substrate addition measured for 30 mins by Ellman's method. (DTNB colorimetry detects thiols as they appear.)
In data set [5] the target is T1, Acetylcholinesterase. Put plainly: Uncompetitive Inhibition of Electrophorus electricus acetylcholinesterase using acetylthiocholine iodide as substrate preincubated for 20 mins followed by substrate addition measured for 30 mins by Ellman's method.
Data set [6] in a line: Solubility of the compound in aqueous buffer. The class given is physicochemical.

Each structure is given as a SMILES string. A value given as a limit tells only on which side of the number the result lay.

T1 sequence (O42275 whole entry): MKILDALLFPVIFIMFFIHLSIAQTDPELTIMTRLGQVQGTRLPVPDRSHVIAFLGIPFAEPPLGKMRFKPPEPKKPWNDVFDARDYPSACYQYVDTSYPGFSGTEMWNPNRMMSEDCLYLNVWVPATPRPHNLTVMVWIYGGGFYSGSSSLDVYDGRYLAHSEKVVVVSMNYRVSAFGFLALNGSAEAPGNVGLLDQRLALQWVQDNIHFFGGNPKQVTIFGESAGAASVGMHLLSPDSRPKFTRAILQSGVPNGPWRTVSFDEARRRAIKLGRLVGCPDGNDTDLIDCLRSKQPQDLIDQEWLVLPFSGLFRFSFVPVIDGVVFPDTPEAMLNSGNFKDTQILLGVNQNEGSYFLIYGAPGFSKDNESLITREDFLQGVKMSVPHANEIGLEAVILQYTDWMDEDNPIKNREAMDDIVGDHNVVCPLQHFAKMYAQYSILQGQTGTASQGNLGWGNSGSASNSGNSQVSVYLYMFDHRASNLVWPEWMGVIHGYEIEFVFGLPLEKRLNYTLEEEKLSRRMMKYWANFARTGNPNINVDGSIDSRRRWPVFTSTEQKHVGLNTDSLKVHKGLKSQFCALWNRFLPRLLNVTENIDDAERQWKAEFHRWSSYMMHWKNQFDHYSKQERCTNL
Chain of Cholinesterase (P81908 whole entry): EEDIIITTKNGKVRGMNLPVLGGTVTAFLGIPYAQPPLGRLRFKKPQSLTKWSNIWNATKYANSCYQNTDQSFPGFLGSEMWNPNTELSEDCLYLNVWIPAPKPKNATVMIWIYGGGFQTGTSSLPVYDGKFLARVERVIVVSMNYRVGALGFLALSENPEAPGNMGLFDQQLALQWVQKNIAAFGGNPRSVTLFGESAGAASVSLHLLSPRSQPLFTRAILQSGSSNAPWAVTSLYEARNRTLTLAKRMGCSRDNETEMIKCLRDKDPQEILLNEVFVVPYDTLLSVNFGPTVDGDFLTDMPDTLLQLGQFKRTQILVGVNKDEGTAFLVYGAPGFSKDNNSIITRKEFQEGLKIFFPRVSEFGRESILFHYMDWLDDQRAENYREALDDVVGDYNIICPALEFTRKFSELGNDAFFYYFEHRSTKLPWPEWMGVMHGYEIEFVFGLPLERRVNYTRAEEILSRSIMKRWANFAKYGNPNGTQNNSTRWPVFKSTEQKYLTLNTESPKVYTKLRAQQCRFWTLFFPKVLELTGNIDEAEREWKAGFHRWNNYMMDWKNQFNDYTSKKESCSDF

`N[C@@H](CO)C(=O)O` [SERINE]: the figures for the IC50 in data set [1] and in data set [2] were 0.015 µM and 0.016 µM, respectively.

Consider `C=C(C)[C@@H]1CC[C@]2(C)[C@H](CC[C@@H]3[C@H]4[C@H]5OC[C@@]4(CCC5(C)C)CC[C@]32C)[C@@]1(C)CCC(=O)O`, for which, in data set [1], the affinity, expressed as Ki, was 31.8 µM. In addition, the EC50 in data set [3] is > 30 µM.

`C=CCCOC(=O)C[C@]1(C)[C@H]2CC[C@@H]3[C@H]4[C@H]5OC[C@@]4(CCC5(C)C)CC[C@@]3(C)[C@]2(C)CC[C@H]1C(C)(C)C(=O)OCCC=C`: in data set [3], the concentration for a half-maximal effect (EC50) is > 30 µM.

On to `C#CCOC(=O)CC[C@]1(C)[C@H]2CC[C@@H]3[C@H]4[C@H]5OC[C@@]4(CCC5(C)C)CC[C@@]3(C)[C@]2(C)CC[C@H]1C(=C)C`, for which the values for the inhibitory constant (Ki) in data set [4] and in data set [5] were 3.33 µM and 2.48 µM, respectively. Besides, the concentration for a half-maximal effect (EC50) in data set [3] is > 30 µM.

Turning to `C#CCOC(=O)C[C@]1(C)[C@H]2CC[C@@H]3[C@H]4[C@H]5OC[C@@]4(CCC5(C)C)CC[C@@]3(C)[C@]2(C)CC[C@H]1C(C)(C)C(=O)OCC#C`, the values for the inhibitory constant (Ki) in data set [4] and in data set [5] were 10.5 µM and 4.63 µM, respectively. The EC50 in data set [3] is 7 µM.

Turning to `C=CCCOC(=O)CC[C@]1(C)[C@H]2CC[C@@H]3[C@H]4[C@H]5OC[C@@]4(CCC5(C)C)CC[C@@]3(C)[C@]2(C)CC[C@H]1C(=C)C`, the solubility entry in data set [6] is “Insoluble”.
